Source: US6537976B1, “Dialysis solutions containing water soluble vitamins and nutrients” (priority 1997, dated 2003)
Where two headings read alike, the source gives them in different places.

Tests used:
[1] = cited from earlier work
[2] = In vitro hemodialysis of uremic plasma using dialysate solutions with and without added vitamins
Experimental: In the following experiment uremic plasma was dialyzed against dialysate solutions containing different concentrations of vitamins, and the total plasma levels of vitamins after dialysis was measured.
Plasma obtained from a uremic subject undergoing plasmapharesis was pooled and samples were taken for estimation of baseline vitamin levels. The total volume of 2.7 liters was divided into three equal aliquots of 900 ml each. Hemodialysis was performed on each aliquot of plasma using a F-60 polysulfone dialyzer (Fresenius Inc., USA). The plasma flow rate was 350 ml/min and the dialysate flow rate was 500 ml/min.
In the first experiment, vitamins were not added to the dialysate. In the second experiment, vitamins were added to the dialysate at a concentration that was close to the upper limit of normal, to simulate the maintenance of physiologic levels. In the third experiment, vitamins were added to the dialysate at a concentration that was 10 times that in the second experiment, with the aim of achieving supratherapeutic levels.

plasma proteins = details: subjects with normal kidney function; effects of uremia not examined; cited from earlier work
[3] = cited from earlier work; remark: listed apart in the source
[4] = cited from earlier work; remark: listed apart in the source
[5] = subjects with normal renal function; cited from earlier work
[6] = vitamin in the dialysate 0 μg/L
[7] = vitamin in the dialysate 60 μg/L
[8] = vitamin in the dialysate 600 μg/L
[9] = vitamin in the dialysate 15 μg/L
[10] = vitamin in the dialysate 150 μg/L

Compound: Cc1ncc(C[n+]2csc(CCO)c2C)c(N)n1 [Thiamine, thiamine]
- Whole blood thiamine in hemodialysis patients receiving supplementation in high doses ([1]; 600-900 mg thiamine per week, predialysis, mean ± SD): 50 ± 12 µg/L
- Plasma concentration of the vitamin after dialysis for 0 min (Baseline) [2, 6]: 17 ng/mL
- Plasma concentration of the vitamin after dialysis for 90 min [2, 6]: 3.6 ng/mL
- Plasma concentration of the vitamin after dialysis for 0 min (Baseline) [2, 7]: 17 ng/mL
- Plasma concentration of the vitamin after dialysis for 90 min [2, 7]: 72 ng/mL
- Ratio of Plasma to dialysate at the end of dialysis (VP/VD) [2, 7]: 1.2
- Plasma concentration of the vitamin after dialysis for 0 min (Baseline) [2, 8]: 17 ng/mL
- Plasma concentration of the vitamin after dialysis for 90 min [2, 8]: >100 ng/mL
- Fraction of the plasma content that is protein bound (binding in words) (plasma proteins): albumin

Compound: Cc1ncc(CO)c(CO)c1O.Cl [pyridoxine hydrochloride]
- effect of addition to the dialysate on plasma PLP concentration ([2]; assay specific for esters such as PLP, does not measure pyridoxine): did not result in an increase in PLP concentration

Compound: cyanocobalamin [Vitamin B12]
- Plasma concentration in hemodialysis patients receiving supplementation in high doses ([1]; vitamin B12, Bostom et al., predialysis, mean ± SD): 1.3 ± 0.4 ng/mL
- solubility in water [3]: soluble in water
- Fraction of the plasma content that is protein bound (binding in words) (plasma proteins): Protein bound

Compound: Nc1nc2ncc(CNc3ccc(C(=O)N[C@@H](CCC(=O)O)C(=O)O)cc3)nc2c(=O)[nH]1 [Folic acid, folic acid]
- Plasma concentration in hemodialysis patients receiving supplementation in high doses ([1]; 15 mg folic acid daily for 8 weeks, predialysis, mean ± SD): 927 ± 575 μg/L with 15
- Plasma concentration of the vitamin after dialysis for 0 min (Baseline) [2, 6]: 5.8 ng/mL
- Plasma concentration of the vitamin after dialysis for 45 min [2, 6]: 1.7 ng/mL
- Plasma concentration of the vitamin after dialysis for 90 min [2, 6]: 3.3 ng/mL
- Plasma concentration of the vitamin after dialysis for 0 min (Baseline) [2, 9]: 5.8 ng/mL
- Plasma concentration of the vitamin after dialysis for 45 min [2, 9]: 32.2 ng/mL
- Plasma concentration of the vitamin after dialysis for 90 min [2, 9]: 39.8 ng/mL
- Plasma concentration of the vitamin after dialysis for 0 min (Baseline) [2, 10]: 5.8 ng/mL
- Plasma concentration of the vitamin after dialysis for 45 min [2, 10]: 256.5 ng/mL
- Plasma concentration of the vitamin after dialysis for 90 min [2, 10]: 272.2 ng/mL

Compound: O=C1O[C@H]([C@@H](O)CO)C(O)=C1O [Ascorbic acid (vit C), ascorbic acid]
- Plasma concentration in hemodialysis patients receiving supplementation in high doses ([1]; 500 mg ascorbic acid/day for 2 weeks, mean ± SE): 28 ± 2 mg/L (mean ± SE),
- Plasma concentration in hemodialysis patients receiving supplementation in high doses, Range ([1]; 500 mg ascorbic acid/day for 2 weeks, range): Range: 15-37 mg/L,

Compound: Cc1ncc(COP(=O)(O)O)c(C=O)c1O [Pyridoxal 5′-phosphate (vit B6), pyridoxal 5-phosphate]
- Fraction of the plasma content that is protein bound (binding in words) (plasma proteins): albumin

Compound: C[N+](C)(C)C[C@H](O)CC(=O)[O-] [L-carnitine]
- patients showing global improvement in clinical status ([4]; 20 mg/kg intravenous after each hemodialysis session for 6 months, control group 18%): 50%
- clinical effects of carnitine administration ([4]; chronic hemodialysis patients): improvement in intradialytic hypotension, muscle cramps, exercise capacity, a sense of well being
- Free carnitine plasma concentration in hemodialysis patients receiving supplementation in high doses ([1]; 20 mg/Kg L-carnitine intravenously three times a week following hemodialysis for 6 months, mean ± SE): Free carnitine 250 ± 11 μmol/L
- fraction of the administered dose excreted in the urine [5]: 58-65%
- solubility in water [3]: water soluble
- Fraction of the plasma content that is protein bound (binding in words) (plasma proteins): not bound
